Patent US9776987B2, “Amide derivatives for GPR119 agonist” (CHONG KUN DANG PHARMACEUTICAL CORP., priority 2013, dated 2017)
Converted amounts (≈) assume the structure as drawn. Read-outs that look alike come from different tables or passages of the source.

How the values were obtained:
Male C57/6J Jms mice = test: Glucose tolerance test in normal mouse; format: in vivo
Protocol: 1. Method of Glucose Tolerance Test
Male C57/6J Jms mice of 6-7 weeks of age were fasted for 16 hours before the start of glucose tolerance test. […]
Before compound administration, that is, at 0 hour, whole blood glucose level was determined using a Glucometer (ACCU-CHEK, Roche). At 30 minutes after compound administration, whole blood glucose level was determined once again, and 20% glucose (2 g/kg/10 mL) was administered orally. Whole blood glucose level was determined at 20, 40, 60, 80, and 120 minutes after 20% glucose administration. Whole blood glucose level vs. Time was graphicalized. Area under the curve (AUC) of whole blood glucose level was obtained using GraphPad Prism 4.0. The effect of glucose tolerance was adjudged with the corrected area under the curve (cAUC), on which the base value of glucose area under the curve was excluded.

human GPR119 receptor = target: T1, human GPR119 receptor (Homo sapiens, UniProt Q8TDV5); test: Activity test for human GPR119 receptor (GeneBLAzer T-Rex GPR 119 CHO-K1 DA cells); format: cell-based; details: for EC50: human GPR119 receptor expressing CHO-K1 cells, 5 hours treatment, read-out: hGPR119 EC50; for activity for human GPR119 receptor (in words): judgement on the EC50 values of Table 11
T1 construct: host or cells: GeneBLAzer T-Rex GPR 119 CHO-K1 DA cells (CHO-K1)
T1 sequence (Q8TDV5 1-335): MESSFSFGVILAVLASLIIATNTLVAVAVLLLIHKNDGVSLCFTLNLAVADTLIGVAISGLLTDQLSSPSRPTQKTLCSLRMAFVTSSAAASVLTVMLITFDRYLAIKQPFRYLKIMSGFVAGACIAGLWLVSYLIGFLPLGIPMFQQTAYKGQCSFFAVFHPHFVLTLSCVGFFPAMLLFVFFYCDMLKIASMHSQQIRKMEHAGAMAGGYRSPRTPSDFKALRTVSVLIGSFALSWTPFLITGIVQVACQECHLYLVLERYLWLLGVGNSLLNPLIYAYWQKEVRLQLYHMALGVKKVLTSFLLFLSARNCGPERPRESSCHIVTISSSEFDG
Protocol: 1. Human GPR119 Receptor Cell
As a human GPR119 receptor expression cell for this test, the cell line “GeneBLAzer™ T-Rex GPR 119 CHO-K1 DA cells” that is commercially available from Invitrogen, was used. The cell was incubated in the DMEM media containing 1% dialyzed fetal bovine serum etc. The cell incubator was kept at constant temperature and constant humidity of 37° C., 5% CO2.
2. Activity Test for Human GPR119 Receptor
The human GPR119 receptor expressing cell was used to this test. Each of test compounds was added to be final concentrations of 0.1, 1, 10 μM in 96 well and tested in duplicate. A fixed amount of cell was added to each well of 96 well separately, and then treated with the test compound for 5 hours. After treatment of color development agent for 2 hours, the fluorescence value was determined with plate reader. To the luminous wavelength of control well, which was not treated with the sample, but in which only a vehicle […] was contained, the ratio of the luminous wavelength of test well, which was treated with the sample, was calculated, and then converted to obtain EC50 value.
3. Statistical Processing
All the results were expressed as mean±SD, and each test groups and the control group were compared using student's t-test to adjudge the effects of each test groups.

[1] = system: Glucagon-Like Peptide-1 (GLP-1) secretion; test: Secretion capacity test of glucagon-like peptide-1 (GLP-1); format: in vivo, mouse; details: normal mice, oral, AUC of plasma GLP-1 level, vehicle (water) 100%
Protocol: 3. Secretion Capacity Test of Glucagon-Like Peptide-1 (GLP-1)
Male C57/6J Jms mice of 6-7 weeks of age were fasted for 16 hours before the start of the test of secretion capacity test of GLP-1. The experimental animal groups consist of: a vehicle group (100% DI water); and test groups administered with each compounds (10 mg/kg). Blood samples were taken from the orbital vein of the test animals. Plasma GLP-1 level was determined using a GLP-1 ELISA kit (Total GLP-1 ELISA, ALPCO). With the base of 30 minutes before the compound administration, each blood samples were taken at 30, 60, 120 and 210 minutes after the compound administration. 30% Glucose solution (3 g/kg/10 mL) was administered orally at 5 minutes before each blood-collecting. From the collected blood, only plasma was taken using a centrifuge (12000 rpm, 15 minutes), and stored at −80° C. before analysis. Plasma GLP-1 level vs. Time was graphicalized. Area under the curve (AUC) of plasma GLP-1 level was obtained using GraphPad Prism 4.0. All the results were expressed as mean±SD, and each test groups and the control group were compared using one-way ANOVA test (Dunnett's test, *p<0.05, **p<0.01, ***p<0.001) to adjudge the effects of each test groups.

[2] = Solubility test of GPR 119 agonist compounds (Nephelostar); format: physicochemical; details: aqueous with cosolvent or surfactant or cyclodextrin, kinetic from dmso stock
Protocol: 1. Method of Solubility Test
Each test compounds were dissolved in 5% DMSO aqueous solution as a solvent at several concentrations. When a laser was irradiated to the solution, the particles, which are not dissolved in the solvent, scatter the light. The level of the scattered light is dependent to the number of the particles, so the solubility of the test compound in the solution can be determined using the relationship. As the test equipment, Nephelostar was used.

[3] = 10 mg/kg, whole blood glucose AUC after oral glucose 2 g/kg, 10 mg/kg
[4] = pH 2, 5% DMSO aqueous solution, read-out: Solubility pH 2
[5] = pH 4, 5% DMSO aqueous solution, read-out: Solubility pH 4
[6] = pH 6, 5% DMSO aqueous solution, read-out: Solubility pH 6
[7] = pH 8, 5% DMSO aqueous solution, read-out: Solubility pH 8
[8] = 10 mg/kg, whole blood glucose AUC after oral glucose 2 g/kg

| Compound | EC50 (human GPR119 receptor) | activity for human GPR119 receptor (in words) (human GPR119 receptor) | solubility [2, 4] | solubility [2, 5] | solubility [2, 6] | solubility [2, 7] | Decrease % of AUC at 10 mg/kg (Male C57/6J Jms mice; [3]) | GLP-1 secretion (%) at 10 mg/kg of dose [1] | Decrease % of AUC at 2.5 mg/kg (Male C57/6J Jms mice; 2.5 mg/kg) | Decrease % of AUC at 5 mg/kg (Male C57/6J Jms mice; 5 mg/kg) | Decrease % of AUC at 10 mg/kg (Male C57/6J Jms mice; [8]) |
| --- | --- | --- | --- | --- | --- | --- | --- | --- | --- | --- | --- |
| NC(=O)[C@@H]1C[C@@H](O)CN1C(=O)c1ccc(-c2ccc(OCC3CCN(CC4(C(F)(F)F)CCC4)CC3)cc2)cc1 [Compound 1199, (2S,4R)-4-hydroxy-1-(4′-((1-((1-(trifluoromethyl)cyclobutyl)methyl)piperidin-4-yl)methoxy)biphenylcarbonyl)pyrrolidin-2-carboxamide] | 12 nM |  |  |  |  |  | 31% |  |  |  |  |
| CC(C)(F)CN1CCC(COc2ccc(-c3ccc(C(=O)N4CCC[C@@]4(C)C(N)=O)c(F)c3)nc2)CC1 [Compound 1207, (S)-1-(2-fluoro-4-(5-((1-(2-fluoro-2-methylpropyl)piperidin-4-yl)methoxy)pyridin-2-yl)benzoyl)-2-methylpyrrolidin-2-carboxamide] | 0.07 nM | excellent activity | > 257 µg/mL | > 257 µg/mL | > 257 µg/mL | > 257 µg/mL |  | 223% | 31.3% | 45.1% |  |
| C[C@@]1(C(N)=O)C[C@@H](O)CN1C(=O)c1ccc(-c2ccc(OCC3CCN(CC4(C(F)(F)F)CCC4)CC3)nc2)c(F)c1 [Compound 1325, (2S,4R)-1-(3-fluoro-4-(6-((1-((1-(trifluoromethyl)cyclobutyl)methyl)piperidin-4-yl)methoxy)pyridin-3-yl)benzoyl)-4-hydroxy-2-methylpyrrolidin-2-carboxamide] | 14 nM | excellent activity | > 296 µg/mL | > 296 µg/mL | > 296 µg/mL | 114 µg/mL (≈ 192 µM) |  |  |  |  |  |
| C[C@@]1(C(N)=O)C[C@@H](O)CN1C(=O)c1ccc(-c2ccc(OCC3CCN(CC4(C(F)(F)F)CCC4)CC3)cn2)c(F)c1 [Compound 1329, (2S,4R)-1-(3-fluoro-4-(5-((1-((1-(trifluoromethyl)cyclobutyl)methyl)piperidin-4-yl)methoxy)pyridin-2-yl)benzoyl)-4-hydroxy-2-methylpyrrolidin-2-carboxamide] | 10 nM | excellent activity | > 296 µg/mL | > 296 µg/mL | > 296 µg/mL | 112 µg/mL (≈ 189 µM) |  |  |  |  |  |
| CC(C)c1noc(N2CCC(COc3ccc(-c4ccc(S(C)(=O)=O)cc4)nc3)CC2)n1 [GSK-1292263, reference compound] |  |  |  |  |  |  |  |  |  |  | 10~20% |
| CCc1cnc(N2CCC(c3nc(COc4ccc(-n5cnnn5)cc4)cs3)CC2)nc1 [MBX-2982, reference compound] |  |  | > 208 µg/mL | 133 µg/mL (≈ 297 µM) | 61 µg/mL (≈ 136 µM) | 39 µg/mL (≈ 86.9 µM) |  | 114% | 9.5% | 18.5% | 20~30% |

Further lines, with some results ahead:

| EC50 (human GPR119 receptor) | activity for human GPR119 receptor (in words) (human GPR119 receptor) | solubility [2, 4] | solubility [2, 5] | solubility [2, 6] | solubility [2, 7] | Compound | Decrease % of AUC at 10 mg/kg (Male C57/6J Jms mice; [3]) | GLP-1 secretion (%) at 10 mg/kg of dose [1] | Decrease % of AUC at 2.5 mg/kg (Male C57/6J Jms mice; 2.5 mg/kg) | Decrease % of AUC at 5 mg/kg (Male C57/6J Jms mice; 5 mg/kg) | Decrease % of AUC at 10 mg/kg (Male C57/6J Jms mice; [8]) |
| --- | --- | --- | --- | --- | --- | --- | --- | --- | --- | --- | --- |
| 3 nM | excellent activity |  |  |  |  | CC(C)(CN1CCC(COc2ccc(-c3ccc(C(=O)N4C[C@H](O)C[C@H]4C(N)=O)c(F)c3)cn2)CC1)C(F)(F)F [Compound 1208, (2S,4R)-1-(2-fluoro-4-(6-((1-(3,3,3-trifluoro-2,2-dimethylpropyl)piperidin-4-yl)methoxy)pyridin-3-yl)benzoyl)-4-hydroxypyrrolidin-2-carboxamide] | 38% |  |  |  |  |
| 0.1 nM |  |  |  |  |  | CC(C)(CN1CCC(COc2ccc(-c3ccc(C(=O)N4C[C@H](O)C[C@H]4C(N)=O)c(F)c3)c(F)c2)CC1)C(F)(F)F [Compound 1240, (2S,4R)-1-(2′,3-difluoro-4′-((1-(3,3,3-trifluoro-2,2-dimethylpropyl)piperidin-4-yl)methoxy)biphenylcarbonyl)-4-hydroxypyrrolidin-2-carboxamide] | 35% |  |  |  |  |
| 13 nM | excellent activity | > 272 µg/mL | > 272 µg/mL | > 272 µg/mL | 133 µg/mL (≈ 244 µM) | CCC(F)(CC)CN1CCC(COc2ccc(-c3ccc(C(=O)N4C[C@H](O)C[C@H]4C(N)=O)c(F)c3)nc2)CC1 [Compound 1279, (2S,4R)-1-(4-(5-((1-(2-ethyl-2-fluorobutyl)piperidin-4-yl)methoxy)pyridin-2-yl)-2-fluorobenzoyl)-4-hydroxypyrrolidin-2-carboxamide] |  | 324% | 20.8% | 30.2% |  |
| 19 nM | excellent activity | > 290 µg/mL | > 290 µg/mL | 203 µg/mL (≈ 350 µM) | 52 µg/mL (≈ 89.6 µM) | CC(C)(CN1CCC(COc2ccc(-c3ccc(C(=O)N4C[C@H](O)C[C@@]4(C)C(N)=O)c(F)c3)nc2)CC1)C(F)(F)F [Compound 1294, (2S,4R)-1-(2-fluoro-4-(5-((1-(3,3,3-trifluoro-2,2-dimethylpropyl)piperidin-4-yl)methoxy)pyridin-2-yl)benzoyl)-4-hydroxy-2-methylpyrrolidin-2-carboxamide] |  |  |  |  |  |
| 6 nM | excellent activity | > 274 µg/mL | > 274 µg/mL | > 274 µg/mL | 89 µg/mL (≈ 162 µM) | CC(C)(CN1CCC(COc2ccc(-c3ccc(C(=O)N4C[C@H](O)C[C@H]4C(N)=O)cc3)nc2)CC1)C(F)(F)F [Compound 1322, (2S,4R)-4-hydroxy-1-(4-(5-((1-(3,3,3-trifluoro-2,2-dimethylpropyl)piperidin-4-yl)methoxy)pyridin-2-yl)benzoyl)pyrrolidin-2-carboxamide] |  |  |  |  |  |
| 4 nM | excellent activity | > 283 µg/mL | > 283 µg/mL | 355 µg/mL (≈ 627 µM) | 88 µg/mL (≈ 155 µM) | CC(C)(CN1CCC(COc2ccc(-c3ccc(C(=O)N4C[C@H](O)C[C@H]4C(N)=O)cc3F)nc2)CC1)C(F)(F)F [Compound 1323, (2S,4R)-1-(3-fluoro-4-(5-((1-(3,3,3-trifluoro-2,2-dimethylpropyl)piperidin-4-yl)methoxy)pyridin-2-yl)benzoyl)-4-hydroxypyrrolidin-2-carboxamide] |  |  |  |  |  |
